Data reported in the NIST ThermoML archive (doi:10.1016/j.fluid.2014.11.020).
± gives the expanded uncertainty stated by the source.

Assay: activity coefficient (dimensionless); of the first substance listed, at infinite dilution; xn = mol fraction of the nth substance listed
Settings: Liquid, Chromatography, x1 = 0

Cc1ccccc1C [1,2-dimethylbenzene] + CCCCCCCCn1cc[n+](COCCC)c1C.N#C[N-]C#N
activity coefficient (323.15 K): 1.33 ± 0.09
activity coefficient (333.15 K): 1.33 ± 0.09
activity coefficient (343.15 K): 1.33 ± 0.09

Cc1ccccc1C [1,2-dimethylbenzene] + CCCCCCCCn1cc[n+](COCCC)c1C.O=S(=O)([N-]S(=O)(=O)C(F)(F)F)C(F)(F)F
activity coefficient (323.15 K): 0.94 ± 0.06
activity coefficient (333.15 K): 0.94 ± 0.06
activity coefficient (343.15 K): 0.94 ± 0.06

Cc1ccccc1C [1,2-dimethylbenzene] + CCCCCCCCn1cc[n+](COCCCOC[n+]2ccn(CCCCCCCC)c2C)c1C.N#C[N-]C#N.N#C[N-]C#N
activity coefficient (323.15 K): 1.16 ± 0.07
activity coefficient (333.15 K): 1.18 ± 0.08
activity coefficient (343.15 K): 1.22 ± 0.08

Cc1ccccc1C [1,2-dimethylbenzene] + CCCCCCCCn1cc[n+](COCCCOC[n+]2ccn(CCCCCCCC)c2C)c1C.O=S(=O)([N-]S(=O)(=O)C(F)(F)F)C(F)(F)F.O=S(=O)([N-]S(=O)(=O)C(F)(F)F)C(F)(F)F
activity coefficient (323.15 K): 0.68 ± 0.05
activity coefficient (333.15 K): 0.66 ± 0.05
activity coefficient (343.15 K): 0.66 ± 0.05

Cc1ccccc1C [1,2-dimethylbenzene] + CCCOC[n+]1ccc(N(C)C)cc1.O=S(=O)([N-]S(=O)(=O)C(F)(F)F)C(F)(F)F
activity coefficient (323.15 K): 1.24 ± 0.08
activity coefficient (333.15 K): 1.31 ± 0.09
activity coefficient (343.15 K): 1.33 ± 0.09

Cc1ccccc1C [1,2-dimethylbenzene] + CCCOC[n+]1ccn(C)c1.F[B-](F)(F)F
activity coefficient (323.15 K): 9.13 ± 0.62
activity coefficient (333.15 K): 8.97 ± 0.61
activity coefficient (343.15 K): 8.93 ± 0.61

Cc1ccccc1C [1,2-dimethylbenzene] + CCCOC[n+]1ccn(C)c1.N#C[N-]C#N
activity coefficient (323.15 K): 5.05 ± 0.34
activity coefficient (333.15 K): 5.13 ± 0.35
activity coefficient (343.15 K): 5.22 ± 0.36

Cc1ccccc1C [1,2-dimethylbenzene] + CCCOC[n+]1ccn(C)c1.O=S(=O)([N-]S(=O)(=O)C(F)(F)F)C(F)(F)F
activity coefficient (323.15 K): 2.3 ± 0.16
activity coefficient (333.15 K): 2.28 ± 0.16
activity coefficient (343.15 K): 2.29 ± 0.16

Cc1ccccc1C [1,2-dimethylbenzene] + CCCOC[n+]1ccn(Cc2ccccc2)c1.F[B-](F)(F)F
activity coefficient (323.15 K): 4.3 ± 0.29
activity coefficient (333.15 K): 4.17 ± 0.28
activity coefficient (343.15 K): 4.22 ± 0.29

Cc1ccccc1C [1,2-dimethylbenzene] + CCCOC[n+]1ccn(Cc2ccccc2)c1.N#C[N-]C#N
activity coefficient (323.15 K): 3.05 ± 0.21
activity coefficient (333.15 K): 3.03 ± 0.21
activity coefficient (343.15 K): 3.01 ± 0.2

Cc1ccccc1C [1,2-dimethylbenzene] + CCCOC[n+]1ccn(Cc2ccccc2)c1.O=S(=O)([N-]S(=O)(=O)C(F)(F)F)C(F)(F)F
activity coefficient (323.15 K): 1.58 ± 0.1
activity coefficient (333.15 K): 1.23 ± 0.08
activity coefficient (343.15 K): 1.22 ± 0.08

Cc1ccccc1C [1,2-dimethylbenzene] + CN(C)c1cc[n+](COCCCOC[n+]2ccc(N(C)C)cc2)cc1.O=S(=O)([N-]S(=O)(=O)C(F)(F)F)C(F)(F)F.O=S(=O)([N-]S(=O)(=O)C(F)(F)F)C(F)(F)F
activity coefficient (323.15 K): 1.18 ± 0.08
activity coefficient (333.15 K): 1.2 ± 0.08
activity coefficient (343.15 K): 1.22 ± 0.08

Cc1ccccc1C [1,2-dimethylbenzene] + Cn1cc[n+](COCCCOC[n+]2ccn(C)c2)c1.N#C[N-]C#N.N#C[N-]C#N
activity coefficient (323.15 K): 8.42 ± 0.57
activity coefficient (333.15 K): 8.26 ± 0.56
activity coefficient (343.15 K): 8.25 ± 0.56

Cc1ccccc1C [1,2-dimethylbenzene] + Cn1cc[n+](COCCCOC[n+]2ccn(C)c2)c1.O=S(=O)([N-]S(=O)(=O)C(F)(F)F)C(F)(F)F.O=S(=O)([N-]S(=O)(=O)C(F)(F)F)C(F)(F)F
activity coefficient (323.15 K): 2.08 ± 0.14
activity coefficient (333.15 K): 2.1 ± 0.14
activity coefficient (343.15 K): 2.04 ± 0.14

Cc1ccccc1C [1,2-dimethylbenzene] + N#C[N-]C#N.N#C[N-]C#N.c1ccc(Cn2cc[n+](COCCCOC[n+]3ccn(Cc4ccccc4)c3)c2)cc1
activity coefficient (323.15 K): 7.13 ± 0.49
activity coefficient (333.15 K): 6.87 ± 0.47
activity coefficient (343.15 K): 6.71 ± 0.46

Cc1cccc(C)c1 [1,3-dimethylbenzene] + CCCCCCCCn1cc[n+](COCCC)c1C.N#C[N-]C#N
activity coefficient (323.15 K): 1.54 ± 0.1
activity coefficient (333.15 K): 1.54 ± 0.1
activity coefficient (343.15 K): 1.57 ± 0.1

Cc1cccc(C)c1 [1,3-dimethylbenzene] + CCCCCCCCn1cc[n+](COCCC)c1C.O=S(=O)([N-]S(=O)(=O)C(F)(F)F)C(F)(F)F
activity coefficient (323.15 K): 1.02 ± 0.06
activity coefficient (333.15 K): 1 ± 0.06
activity coefficient (343.15 K): 1.01 ± 0.06

Cc1cccc(C)c1 [1,3-dimethylbenzene] + CCCCCCCCn1cc[n+](COCCCOC[n+]2ccn(CCCCCCCC)c2C)c1C.N#C[N-]C#N.N#C[N-]C#N
activity coefficient (323.15 K): 1.36 ± 0.09
activity coefficient (333.15 K): 1.37 ± 0.09
activity coefficient (343.15 K): 1.39 ± 0.09

Cc1cccc(C)c1 [1,3-dimethylbenzene] + CCCCCCCCn1cc[n+](COCCCOC[n+]2ccn(CCCCCCCC)c2C)c1C.O=S(=O)([N-]S(=O)(=O)C(F)(F)F)C(F)(F)F.O=S(=O)([N-]S(=O)(=O)C(F)(F)F)C(F)(F)F
activity coefficient (323.15 K): 0.75 ± 0.05
activity coefficient (333.15 K): 0.72 ± 0.05
activity coefficient (343.15 K): 0.74 ± 0.05

Cc1cccc(C)c1 [1,3-dimethylbenzene] + CCCOC[n+]1ccc(N(C)C)cc1.O=S(=O)([N-]S(=O)(=O)C(F)(F)F)C(F)(F)F
activity coefficient (323.15 K): 1.4 ± 0.09
activity coefficient (333.15 K): 1.47 ± 0.1
activity coefficient (343.15 K): 1.48 ± 0.1

Cc1cccc(C)c1 [1,3-dimethylbenzene] + CCCOC[n+]1ccn(C)c1.F[B-](F)(F)F
activity coefficient (323.15 K): 11 ± 0.75
activity coefficient (333.15 K): 10.8 ± 0.74
activity coefficient (343.15 K): 10.7 ± 0.73

Cc1cccc(C)c1 [1,3-dimethylbenzene] + CCCOC[n+]1ccn(C)c1.N#C[N-]C#N
activity coefficient (323.15 K): 6.24 ± 0.43
activity coefficient (333.15 K): 6.24 ± 0.43
activity coefficient (343.15 K): 6.41 ± 0.44

Cc1cccc(C)c1 [1,3-dimethylbenzene] + CCCOC[n+]1ccn(C)c1.O=S(=O)([N-]S(=O)(=O)C(F)(F)F)C(F)(F)F
activity coefficient (323.15 K): 2.59 ± 0.18
activity coefficient (333.15 K): 2.54 ± 0.17
activity coefficient (343.15 K): 2.54 ± 0.17

Cc1cccc(C)c1 [1,3-dimethylbenzene] + CCCOC[n+]1ccn(Cc2ccccc2)c1.F[B-](F)(F)F
activity coefficient (323.15 K): 5.41 ± 0.37
activity coefficient (333.15 K): 4.91 ± 0.33
activity coefficient (343.15 K): 4.91 ± 0.33

Cc1cccc(C)c1 [1,3-dimethylbenzene] + CCCOC[n+]1ccn(Cc2ccccc2)c1.N#C[N-]C#N
activity coefficient (323.15 K): 3.62 ± 0.25
activity coefficient (333.15 K): 3.52 ± 0.24
activity coefficient (343.15 K): 3.42 ± 0.23

Cc1cccc(C)c1 [1,3-dimethylbenzene] + CCCOC[n+]1ccn(Cc2ccccc2)c1.O=S(=O)([N-]S(=O)(=O)C(F)(F)F)C(F)(F)F
activity coefficient (323.15 K): 1.55 ± 0.1
activity coefficient (333.15 K): 1.37 ± 0.09
activity coefficient (343.15 K): 1.35 ± 0.09

Cc1cccc(C)c1 [1,3-dimethylbenzene] + CN(C)c1cc[n+](COCCCOC[n+]2ccc(N(C)C)cc2)cc1.O=S(=O)([N-]S(=O)(=O)C(F)(F)F)C(F)(F)F.O=S(=O)([N-]S(=O)(=O)C(F)(F)F)C(F)(F)F
activity coefficient (323.15 K): 1.36 ± 0.09
activity coefficient (333.15 K): 1.38 ± 0.09
activity coefficient (343.15 K): 1.4 ± 0.09

Cc1cccc(C)c1 [1,3-dimethylbenzene] + Cn1cc[n+](COCCCOC[n+]2ccn(C)c2)c1.N#C[N-]C#N.N#C[N-]C#N
activity coefficient (323.15 K): 10.9 ± 0.75
activity coefficient (333.15 K): 10.7 ± 0.73
activity coefficient (343.15 K): 10.5 ± 0.72

Cc1cccc(C)c1 [1,3-dimethylbenzene] + Cn1cc[n+](COCCCOC[n+]2ccn(C)c2)c1.O=S(=O)([N-]S(=O)(=O)C(F)(F)F)C(F)(F)F.O=S(=O)([N-]S(=O)(=O)C(F)(F)F)C(F)(F)F
activity coefficient (323.15 K): 2.39 ± 0.16
activity coefficient (333.15 K): 2.41 ± 0.16
activity coefficient (343.15 K): 2.38 ± 0.16

Cc1cccc(C)c1 [1,3-dimethylbenzene] + N#C[N-]C#N.N#C[N-]C#N.c1ccc(Cn2cc[n+](COCCCOC[n+]3ccn(Cc4ccccc4)c3)c2)cc1
activity coefficient (323.15 K): 8.85 ± 0.6
activity coefficient (333.15 K): 8.51 ± 0.58
activity coefficient (343.15 K): 8.32 ± 0.57

Cc1ccc(C)cc1 [1,4-dimethylbenzene] + CCCCCCCCn1cc[n+](COCCC)c1C.N#C[N-]C#N
activity coefficient (323.15 K): 1.51 ± 0.1
activity coefficient (333.15 K): 1.52 ± 0.1
activity coefficient (343.15 K): 1.56 ± 0.1

Cc1ccc(C)cc1 [1,4-dimethylbenzene] + CCCCCCCCn1cc[n+](COCCC)c1C.O=S(=O)([N-]S(=O)(=O)C(F)(F)F)C(F)(F)F
activity coefficient (323.15 K): 1.02 ± 0.06
activity coefficient (333.15 K): 1.01 ± 0.06
activity coefficient (343.15 K): 1 ± 0.06

Cc1ccc(C)cc1 [1,4-dimethylbenzene] + CCCCCCCCn1cc[n+](COCCCOC[n+]2ccn(CCCCCCCC)c2C)c1C.N#C[N-]C#N.N#C[N-]C#N
activity coefficient (323.15 K): 1.34 ± 0.09
activity coefficient (333.15 K): 1.35 ± 0.09
activity coefficient (343.15 K): 1.36 ± 0.09

Cc1ccc(C)cc1 [1,4-dimethylbenzene] + CCCCCCCCn1cc[n+](COCCCOC[n+]2ccn(CCCCCCCC)c2C)c1C.O=S(=O)([N-]S(=O)(=O)C(F)(F)F)C(F)(F)F.O=S(=O)([N-]S(=O)(=O)C(F)(F)F)C(F)(F)F
activity coefficient (323.15 K): 0.75 ± 0.05
activity coefficient (333.15 K): 0.73 ± 0.05
activity coefficient (343.15 K): 0.73 ± 0.05

Cc1ccc(C)cc1 [1,4-dimethylbenzene] + CCCOC[n+]1ccc(N(C)C)cc1.O=S(=O)([N-]S(=O)(=O)C(F)(F)F)C(F)(F)F
activity coefficient (323.15 K): 1.38 ± 0.09
activity coefficient (333.15 K): 1.45 ± 0.1
activity coefficient (343.15 K): 1.45 ± 0.1

Cc1ccc(C)cc1 [1,4-dimethylbenzene] + CCCOC[n+]1ccn(C)c1.F[B-](F)(F)F
activity coefficient (323.15 K): 10.7 ± 0.73
activity coefficient (333.15 K): 10.3 ± 0.7
activity coefficient (343.15 K): 10.2 ± 0.7

Cc1ccc(C)cc1 [1,4-dimethylbenzene] + CCCOC[n+]1ccn(C)c1.N#C[N-]C#N
activity coefficient (323.15 K): 5.98 ± 0.41
activity coefficient (333.15 K): 6.03 ± 0.41
activity coefficient (343.15 K): 6.05 ± 0.41

Cc1ccc(C)cc1 [1,4-dimethylbenzene] + CCCOC[n+]1ccn(C)c1.O=S(=O)([N-]S(=O)(=O)C(F)(F)F)C(F)(F)F
activity coefficient (323.15 K): 2.58 ± 0.18
activity coefficient (333.15 K): 2.53 ± 0.17
activity coefficient (343.15 K): 2.52 ± 0.17

Cc1ccc(C)cc1 [1,4-dimethylbenzene] + CCCOC[n+]1ccn(Cc2ccccc2)c1.F[B-](F)(F)F
activity coefficient (323.15 K): 5.12 ± 0.35
activity coefficient (333.15 K): 4.85 ± 0.33
activity coefficient (343.15 K): 4.88 ± 0.33

Cc1ccc(C)cc1 [1,4-dimethylbenzene] + CCCOC[n+]1ccn(Cc2ccccc2)c1.N#C[N-]C#N
activity coefficient (323.15 K): 3.66 ± 0.25
activity coefficient (333.15 K): 3.56 ± 0.24
activity coefficient (343.15 K): 3.46 ± 0.24

Cc1ccc(C)cc1 [1,4-dimethylbenzene] + CCCOC[n+]1ccn(Cc2ccccc2)c1.O=S(=O)([N-]S(=O)(=O)C(F)(F)F)C(F)(F)F
activity coefficient (323.15 K): 1.56 ± 0.1
activity coefficient (333.15 K): 1.37 ± 0.09
activity coefficient (343.15 K): 1.34 ± 0.09
